Data taken from patent US8999296B2, “Method of detecting bladder cancer” (Kochi University, priority 2008, dated 2015).

Assays:
bladder cancer [1] = test: Fluorescence diagnosis in bladder cancer patients grouped by disease stage (pTis, pTa, pT1, pT2, pT3), Example 2; type: in vivo, human; conditions: 50 bladder cancer patients, stages pTis, dosing as in Example 1
Experimental: ALA was injected into the bladder or administered orally similarly to Example 1 to bladder cancer patients who had been grouped according to the disease stages based on the intramural invasion depth of the primary tumor: 6 cases of pTis (intraepithelial cancer), 27 cases of pTa (without invasion), 9 cases of pT1 (with invasion to submucosal connective tissue), 6 cases of pT2 (with muscle invasion), 2 cases of pT3 (with invasion to pericystic adipose tissue) (50 cases for total number of patients). […] This confirmed that oral administration is effective in a diagnosis method for bladder cancer at every disease stage.

bladder cancer [2] = test: Intraoperative photodynamic diagnosis of bladder cancer with ALA-HCl (video camera system and VLD-M1 fluorescence intensity), Example 1; type: in vivo, human; conditions: for Fluorescence intensity (relative intensity) by VLD-M1: irradiation at 405 nm, PpIX fluorescence at 635 nm, one subject
Experimental: Intraoperative diagnosis using 5-aminolevulinic acid hydrochloride (ALA-HCl) was carried out for two subjects who are in the almost same progression stage of bladder cancer. The subjects were administered ALA-HCl respectively by bladder instillation and by oral intake. Bladder instillation was conducted on the day of operation by dissolving 1.5 g of ALA-HCl in 50 mL of a 8.4% sodium bicarbonate (sodium hydrogen carbonate: NaHCO3) to adjust pH (median pH of 8.0 (pH 7.8-8.2)), filtrating the dissolved ALA-HCl solution with a 0.22 μm filter, and then injecting this dissolved solution (50 mL) into the bladder of a subject. Retention time in the bladder was set for 120-150 min ([…]) and ALA was eliminated just prior to the operation. On the other hand, oral intake was carried out by dissolving ALA (maximum of 1 g) in 50 mL of a 5% dextrose solution to 20 mg/kg, and the ALA dissolved solution (50 mL) was orally administered to the other subject in the morning (4 hours before commencement of the operation) without giving breakfast. Diagnosis was conducted based on the diagnostic imaging and fluorescent intensity with the use of a video camera system: Endovision TELECAM SL/IPM-PPDSystem (KARL STORZ) and VLD-M1 (M&M). The video camera system was inserted via the urethra and the red light part was observed after irradiating a blue fluorescence at 380-440 nm. Further, VLD-M1 was inserted and fluorescence intensity (relative intensity) at the red light part was observed after irradiating a blue fluorescence at 405 nm.
In addition, at 635 nm which is the […] for protoporphyrin IX (PpIX), it was confirmed as shown in Table 1 that the fluorescence intensity was higher in the case of oral intake than in the case of bladder instillation.

## Cl.NCC(=O)CCC(=O)O [ALA, 5-aminolevulinic acid hydrochloride]
Bladder cancer [1]
  Fluorescence, oral administration versus injection into the bladder (FIGS. 3-6): fluorescence was more intensive when ALA was orally administered than when injected into the bladder
Bladder cancer [2]; bladder instillation of ALA (1.5 g ALA-HCl in 50 mL 8.4% NaHCO3)
  Fluorescence intensity (relative intensity) by VLD-M1: 20153
Bladder cancer [2]; oral intake of ALA (20 mg/kg, 4 hours before operation)
  Fluorescence intensity (relative intensity) by VLD-M1: 48623
Bladder cancer [2]; oral intake versus bladder instillation, irradiation at 380-440 nm, red light part observed
  Identification of the site of bladder cancer by diagnostic imaging (FIGS. 1 and 2): more remarkably identified in the case of oral intake than in the case of bladder instillation
